From ChEMBL document CHEMBL1921717, “Benzothiazole-containing hydroxamic acids as histone deacetylase inhibitors and antitumor agents” (Bioorg Med Chem Lett, 2011) come the findings set out here.

One assay concerns NCI-H460. Description: Cytotoxicity against human NCI-H460 cells. Type of assay: functional, cell-based.
For assay [1], the target named is Histone deacetylase 3 (Homo sapiens) (UniProt O15379). The assay is described as follows: Inhibition of HDAC3 in human SW620 cells assessed as increase in histone H3 acetylation at 1 ug/ml after 24 hrs by Western blot analysis. Type of assay: cell-based. The settings on record: SW-620. In general terms: Immunoblotting shows a protein as a band on a membrane.
Sequence of Histone deacetylase 3 (Homo sapiens) (O15379 whole entry): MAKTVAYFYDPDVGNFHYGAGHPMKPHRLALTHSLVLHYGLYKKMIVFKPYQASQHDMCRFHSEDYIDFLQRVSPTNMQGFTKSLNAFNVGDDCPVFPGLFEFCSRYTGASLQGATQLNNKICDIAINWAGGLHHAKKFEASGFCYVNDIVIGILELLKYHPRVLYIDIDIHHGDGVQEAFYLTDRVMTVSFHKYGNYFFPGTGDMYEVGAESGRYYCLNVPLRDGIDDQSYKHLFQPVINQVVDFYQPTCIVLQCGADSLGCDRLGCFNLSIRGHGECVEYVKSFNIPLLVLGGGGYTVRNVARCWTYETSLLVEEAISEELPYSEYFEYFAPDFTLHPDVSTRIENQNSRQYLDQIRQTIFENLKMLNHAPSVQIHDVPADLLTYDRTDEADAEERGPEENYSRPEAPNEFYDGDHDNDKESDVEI
Assay [2] has as its target Histone deacetylase 4 (Homo sapiens) (UniProt P56524). Description: Inhibition of HDAC4 in human HL60 cells assessed as increase in histone H4 acetylation at 1 ug/ml after 24 hrs by Western blot analysis. Type of assay: cell-based. The settings on record: HL-60.
A further assay deals with PC-3. The assay is described as follows: Cytotoxicity against human PC3 cells. Type of assay: functional, cell-based.
Assay [3] concerns the target Histone deacetylase 4 (Homo sapiens) (UniProt P56524). Description: Inhibition of HDAC4 in human SW620 cells assessed as increase in histone H3 acetylation at 1 ug/ml after 24 hrs by Western blot analysis. The settings on record: SW-620. Type of assay: cell-based.
The next assay concerns MCF7. The assay is described as follows: Cytotoxicity against human MCF7 cells. Type of assay: functional, cell-based.
Assay [4] deals with Histone deacetylase 3 (Homo sapiens) (UniProt O15379). Description: Inhibition of HDAC3 in human HL60 cells assessed as increase in histone H4 acetylation at 1 ug/ml after 24 hrs by Western blot analysis. Type of assay: cell-based. The settings on record: HL-60.
Another assay has as its system SW-620. Description: Cytotoxicity against human SW620 cells. Type of assay: functional, cell-based.
A further assay relates to ASPC1. Description: Cytotoxicity against human AsPC1 cells. Type of assay: functional, cell-based.

Converted amounts (≈) assume the structure as drawn. The source made the active and inactive calls. No cut-off for these calls is given here.

Sequence of Histone deacetylase 4 (Homo sapiens) (P56524 whole entry): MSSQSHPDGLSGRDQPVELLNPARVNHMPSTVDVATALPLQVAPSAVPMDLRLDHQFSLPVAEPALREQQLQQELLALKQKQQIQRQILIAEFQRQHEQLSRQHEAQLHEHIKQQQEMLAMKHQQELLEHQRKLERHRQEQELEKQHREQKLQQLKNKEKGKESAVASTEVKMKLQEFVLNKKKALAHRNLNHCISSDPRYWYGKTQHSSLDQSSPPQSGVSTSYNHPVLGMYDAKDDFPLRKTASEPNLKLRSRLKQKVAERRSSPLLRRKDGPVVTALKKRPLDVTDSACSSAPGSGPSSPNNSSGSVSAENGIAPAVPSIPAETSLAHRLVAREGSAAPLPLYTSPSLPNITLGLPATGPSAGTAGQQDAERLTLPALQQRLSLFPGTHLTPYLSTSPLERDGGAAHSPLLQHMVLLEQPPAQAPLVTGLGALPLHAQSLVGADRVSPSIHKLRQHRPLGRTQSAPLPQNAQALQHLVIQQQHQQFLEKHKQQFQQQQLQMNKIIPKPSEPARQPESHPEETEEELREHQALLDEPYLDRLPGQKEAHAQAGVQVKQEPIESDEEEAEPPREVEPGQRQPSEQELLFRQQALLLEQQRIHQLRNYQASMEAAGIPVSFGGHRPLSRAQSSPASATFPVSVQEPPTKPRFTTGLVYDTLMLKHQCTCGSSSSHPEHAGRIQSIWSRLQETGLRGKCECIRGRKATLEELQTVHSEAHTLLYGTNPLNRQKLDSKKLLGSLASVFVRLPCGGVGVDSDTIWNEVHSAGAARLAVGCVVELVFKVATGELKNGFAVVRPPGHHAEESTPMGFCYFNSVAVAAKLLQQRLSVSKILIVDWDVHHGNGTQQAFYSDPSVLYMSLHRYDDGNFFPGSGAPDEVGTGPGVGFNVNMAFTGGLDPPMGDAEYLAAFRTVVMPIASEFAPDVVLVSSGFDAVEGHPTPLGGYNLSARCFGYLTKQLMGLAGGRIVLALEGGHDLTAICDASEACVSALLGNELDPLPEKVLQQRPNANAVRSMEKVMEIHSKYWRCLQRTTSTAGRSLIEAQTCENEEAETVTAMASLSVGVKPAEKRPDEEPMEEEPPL

What is called IC50 is the concentration needed to halve the response being measured. Regarding `O=C(CCCCC(=O)Nc1nc2ccccc2s1)NO`, the IC50 is 14.4 µg/mL (≈ 49.1 µM) in the assay with NCI-H460; 12.5 µg/mL (≈ 42.6 µM) with PC-3; 4.02 µg/mL (≈ 13.7 µM) in the assay on MCF7; 7.85 µg/mL (≈ 26.8 µM) in the assay with SW-620; 10.2 µg/mL (≈ 34.7 µM) in the assay on ASPC1. Besides, the inhibition result in [1], in assay [2], in assay [3] and in assay [4] was “inactive” each time.
For `CCOc1ccc2nc(NC(=O)CCCCCCC(=O)NO)sc2c1`, the IC50 with NCI-H460 was 6.58 µg/mL (≈ 18 µM); in the assay with PC-3, 16.9 µg/mL (≈ 46.2 µM); with MCF7 it was 11.6 µg/mL (≈ 31.8 µM); with SW-620 it was 10.4 µg/mL (≈ 28.5 µM); with ASPC1, 9.88 µg/mL (≈ 27 µM). The inhibition result in [1], in [2], in assay [3] and in [4] was “inactive” throughout.
Consider `O=C(CCCCCCC(=O)Nc1nc2ccc([N+](=O)[O-])cc2s1)NO`, for which the IC50 in the assay with NCI-H460 came to 1.9 µg/mL (≈ 5.19 µM); in the assay with PC-3 it was 1.28 µg/mL (≈ 3.49 µM); in the assay on MCF7, 3.83 µg/mL (≈ 10.5 µM); with SW-620, 0.29 µg/mL (≈ 0.791 µM); with ASPC1, 1.65 µg/mL (≈ 4.5 µM). Moreover, the inhibition entry in [1], in assay [2], in assay [3] and in assay [4] was “Active” throughout.
Consider `Cc1ccc2nc(NC(=O)CCCCC(=O)NO)sc2c1`, for which the IC50 in the assay with NCI-H460 was 11 µg/mL (≈ 35.7 µM); with PC-3, 6.23 µg/mL (≈ 20.3 µM); in the assay on MCF7, 4.27 µg/mL (≈ 13.9 µM); in the assay on SW-620, 4.69 µg/mL (≈ 15.3 µM); in the assay on ASPC1 it was 13.3 µg/mL (≈ 43.4 µM). In addition, the inhibition result in assay [1], in [2], in assay [3] and in assay [4] was “inactive” each time.
For the compound `COc1ccc2nc(NC(=O)CCCCC(=O)NO)sc2c1`, the IC50 came to 21.4 µg/mL (≈ 66.2 µM) in the assay on NCI-H460; 15.3 µg/mL (≈ 47.3 µM) with PC-3; 5.91 µg/mL (≈ 18.3 µM) with MCF7; 9.07 µg/mL (≈ 28 µM) in the assay with SW-620; 23.9 µg/mL (≈ 74 µM) in the assay with ASPC1. The inhibition result in assay [1], in [2], in assay [3] and in [4] was “inactive” throughout.
Take `Cc1ccc2nc(NC(=O)CCCCCCC(=O)NO)sc2c1`: the IC50 amounted to 0.84 µg/mL (≈ 2.5 µM) with NCI-H460; 0.53 µg/mL (≈ 1.58 µM) with PC-3; 1.6 µg/mL (≈ 4.77 µM) with MCF7; 0.56 µg/mL (≈ 1.67 µM) with SW-620; 0.54 µg/mL (≈ 1.61 µM) in the assay on ASPC1. Besides, the inhibition entry in [1], in assay [2], in assay [3] and in [4] was “Active” each time.
As to `CS(=O)(=O)c1ccc2nc(NC(=O)CCCCC(=O)NO)sc2c1`, the IC50 with NCI-H460, in the assay with PC-3, with MCF7, with SW-620 and in the assay with ASPC1 was more than 30 µg/mL in each case. Also, the inhibition entry in [1], in assay [2], in [3] and in assay [4] was “inactive” in each case.
In the case of `O=C(CCCCCCC(=O)Nc1ccccc1)NO` [VORINOSTAT], the IC50 in the assay with PC-3 turned out to be 0.94 µg/mL (≈ 3.56 µM).
Consider `O=C(CCCCCCC(=O)Nc1nc2ccccc2s1)NO`, for which the IC50 with NCI-H460 stood at 5.71 µg/mL (≈ 17.8 µM); in the assay on PC-3 it was 5.44 µg/mL (≈ 16.9 µM); in the assay with MCF7 it was 6.61 µg/mL (≈ 20.6 µM); in the assay on SW-620, 4.01 µg/mL (≈ 12.5 µM); in the assay with ASPC1, 5.69 µg/mL (≈ 17.7 µM). The inhibition result in assay [1], in assay [2], in assay [3] and in [4] was “Active” in each case.
Regarding `O=C(CCCCC(=O)Nc1nc2ccc([N+](=O)[O-])cc2s1)NO`, the half-inhibitory concentration (IC50) with NCI-H460, in the assay with PC-3, with MCF7, in the assay with SW-620 and in the assay on ASPC1 was more than 30 µg/mL in each case. For the same compound, the inhibition entry in assay [1], in [2], in assay [3] and in assay [4] was “inactive” throughout.
Regarding `CCOc1ccc2nc(NC(=O)CCCCC(=O)NO)sc2c1`, the IC50 in the assay with NCI-H460 is 7.96 µg/mL (≈ 23.6 µM); in the assay with PC-3, 6.69 µg/mL (≈ 19.8 µM); in the assay on MCF7 it was 8.72 µg/mL (≈ 25.8 µM); with SW-620, 9.26 µg/mL (≈ 27.4 µM); in the assay on ASPC1 it was 16.7 µg/mL (≈ 49.5 µM). For the same compound, the inhibition result in assay [1], in [2], in assay [3] and in assay [4] was “inactive” throughout.
For `CS(=O)(=O)c1ccc2nc(NC(=O)CCCCCCC(=O)NO)sc2c1`, the IC50 with NCI-H460 is 6.54 µg/mL (≈ 16.4 µM); in the assay with PC-3 it was 5.69 µg/mL (≈ 14.2 µM); in the assay on MCF7, 15.3 µg/mL (≈ 38.4 µM); with SW-620, 5.42 µg/mL (≈ 13.6 µM); in the assay on ASPC1, 13.5 µg/mL (≈ 33.8 µM). Also, the inhibition entry in assay [1], in assay [2], in assay [3] and in assay [4] was “inactive” each time.
As to `COc1ccc2nc(NC(=O)CCCCCCC(=O)NO)sc2c1`, the IC50 in the assay with NCI-H460 is 1.25 µg/mL (≈ 3.56 µM); with PC-3 it was 1.56 µg/mL (≈ 4.44 µM); in the assay on MCF7, 1.85 µg/mL (≈ 5.26 µM); in the assay with SW-620, 0.96 µg/mL (≈ 2.73 µM); in the assay with ASPC1, 0.79 µg/mL (≈ 2.25 µM). Further, the inhibition result in assay [1], in assay [2], in assay [3] and in assay [4] was “Active” in each case.
